From patent publication US20090239841A1, “Diaryl Ureas as CB1 Antagonists” (priority 2004, published 2009)

target: T1, hCB1 (Homo sapiens, UniProt P21554); test: Agonist-induced GTP binding (GTPγ35S) assay at CB1, Example 8; assay type: biochemical; details: IC50 at CB1, determined as described in Example 8; read-out: IC50
T1 construct: made in house; host or cells: Sf9 insect cells (baculovirus), P2 membranes
From the text: As noted above, compounds provided herein are CB1 antagonists. Certain such compounds are non-competitive CB1 antagonists. In addition, or alternatively, certain compounds provided herein display CB1 specificity. CB1 antagonist activity may be confirmed using an agonist-induced GTP binding assay, such as the assay described in Example 8. Such assays employ a CB1-containing cell membrane preparation (e.g., a preparation of membranes of insect cells that recombinantly express CB1) to determine the effect of a test compound on CB1 agonist-induced GTP binding to CB1. Briefly, a first cell membrane preparation comprising CB1 is contacted with: (i) labeled GTP; (ii) a CB1 agonist; and (iii) a test compound to yield a test membrane preparation. Simultaneously, or in either order, a second cell membrane preparation comprising CB1 is contacted with: (i) labeled GTP; and (ii) a CB1 agonist to yield a control membrane preparation. The labeled GTP is preferably GTPγ^35S; a representative CB1 agonist is CP55,940. Such contact is performed under conditions that are suitable for GTP binding to CB1, such as the conditions described in Example 8. The concentrations of labeled GTP and CB1 agonist used are generally concentrations that are sufficient to result in a detectable increase in the amount of labeled GTP bound to the membrane preparation in the presence of CB1 agonist. Such concentrations may be determined by routine experimentation; representative suitable concentrations are provided in Example 8. Generally, a range of test compound concentrations is used (e.g., ranging from 10^−10M to 10^−5M).
After sufficient contact (e.g., incubation) to allow GTP binding to the membrane preparations, a signal that corresponds to (represents) the amount of bound, labeled GTP is detected (typically, unbound labeled GTP is first removed via a washing step). In other words, simultaneously or in either order: (i) a test signal that represents an amount of bound, labeled GTP in the test membrane preparation is detected; and (ii) a control signal that represents an amount of bound, labeled GTP in the control membrane preparation is detected. The nature of the signal detected is determined by the type of label used. For example, if the GTP is radioactively labeled, the signal detected is radioactive decay (e.g., via liquid scintillation spectrometry). The CB1 antagonist activity of the test compound is then determined by comparing the test signal with the control signal.
This assay can also be used to detect partial agonism mediated by antagonist compounds. A compound being analyzed in this assay is referred to herein as a “test compound.” Agonist-stimulated GTP binding activity is measured as follows: Four independent baculoviral stocks (one directing the expression of hCB1 and three directing the expression of each of the three subunits of a heterotrimeric G-protein) are used to infect a culture of Sf9 cells as described in Example 5.
Agonist-stimulated GTP binding on purified membranes (as described in Example 6) is initially assessed using the cannabinoid agonist CP55,940 to ascertain that the receptor/G-protein-alpha-beta-gamma combination(s) yield a functional response as measured by GTP binding.
P2 membranes are resuspended by Dounce homogenization (tight pestle) in GTP binding assay buffer (50 mM Tris pH 7.4, 120 mM NaCl, 5 mM MgCl2, 2 mM EGTA, 0.1% BSA, 0.1 mM bacitracin, 10 KIU/mL aprotinin, 5 μM GDP) and added to reaction tubes at a concentration of 10 μg protein/reaction tube. After adding increasing doses of the agonist CP55,940 at concentrations ranging from 10^−12 M to 10^−6 M, reactions are initiated by the addition of […] GTPγ^35S. In competition experiments, non-radiolabeled test compounds are added to separate assays at concentrations ranging from 10^−10 M to 10^−5 M along with 1 nM CP55,940 to yield a final volume of 0.25 mL. […]

T1 sequence (P21554 whole entry): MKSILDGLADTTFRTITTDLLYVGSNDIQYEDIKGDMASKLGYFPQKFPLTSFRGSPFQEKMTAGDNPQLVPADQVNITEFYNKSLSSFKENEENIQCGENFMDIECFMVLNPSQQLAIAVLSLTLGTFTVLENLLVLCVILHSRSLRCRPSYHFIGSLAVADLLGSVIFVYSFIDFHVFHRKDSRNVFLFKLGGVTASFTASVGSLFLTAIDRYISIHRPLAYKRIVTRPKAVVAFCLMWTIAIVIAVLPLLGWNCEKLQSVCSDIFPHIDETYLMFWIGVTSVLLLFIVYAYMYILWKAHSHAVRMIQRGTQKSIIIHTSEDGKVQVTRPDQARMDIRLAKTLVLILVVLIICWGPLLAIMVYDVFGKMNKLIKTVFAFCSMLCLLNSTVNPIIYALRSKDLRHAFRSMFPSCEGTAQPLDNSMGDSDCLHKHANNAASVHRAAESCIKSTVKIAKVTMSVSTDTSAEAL

IC50, < 2 µM:
CC(=O)c1ccc(NC(=O)Nc2ccc(OC(F)F)cc2)cc1 [Compound 427, 1-(4-acetylphenyl)-3-[4-(difluoromethoxy)phenyl]urea]
CCc1ccc(NC(=O)Nc2ccc(CC#N)cc2)cc1 [Compound 483, 1-[4-(cyanomethyl)phenyl]-3-(4-ethylphenyl)urea]
COc1cccc(NC(=O)Nc2ccc(C(C)C)cc2)c1 [Compound 521, 1-(4-isopropylphenyl)-3-(3-methoxyphenyl)urea]
CCOc1ccc(NC(=O)Nc2ccc(C(=O)OC(C)C)cc2)cc1 [Compound 599, isopropyl 4-({[(4-ethoxyphenyl)amino]carbonyl}amino)benzoate]
Cc1ccc(NC(=O)Nc2cccc(OC(F)F)c2)cc1C [Compound 695, 1-[3-(difluoromethoxy)phenyl]-3-(3,4-dimethylphenyl)urea]
CCCOc1ccc(NC(=O)Nc2ccc(F)c(F)c2)cc1 [Compound 686, 1-(3,4-difluorophenyl)-3-(4-propoxyphenyl)urea]
O=C(Nc1ccc(OC(F)(F)F)cc1)Nc1ccc2c(c1)CCC2 [Compound 610, 1-(2,3-dihydro-1H-inden-5-yl)-3-[4-(trifluoromethoxy)phenyl]urea]
O=C(Nc1ccccc1)Nc1ccc2c(c1)CCC2 [Compound 316, 1-(2,3-dihydro-1H-inden-5-yl)-3-phenylurea]
COc1cccc(NC(=O)Nc2cccc(OC(C)C)c2)c1 [Compound 548, 1-(3-isopropoxyphenyl)-3-(3-methoxyphenyl)urea]
Cc1ccc(NC(=O)Nc2ccc(C(=O)OC(C)C)cc2)cc1 [Compound 478, isopropyl 4-({[(4-methylphenyl)amino]carbonyl}amino)benzoate]
CCCc1ccc(NC(=O)Nc2cc(C)cc(C)c2)cc1 [Compound 658, 1-(3,5-dimethylphenyl)-3-(4-propylphenyl)urea]
N#CCc1ccc(NC(=O)Nc2ccc(F)c(F)c2)cc1 [Compound 728, 1-[4-(cyanomethyl)phenyl]-3-(3,4-difluorophenyl)urea]
O=C(Nc1ccccc1)Nc1cccc(OC(F)F)c1 [Compound 376, 1-[3-(difluoromethoxy)phenyl]-3-phenylurea]
CCOC(=O)c1ccc(NC(=O)Nc2cccc(F)c2)cc1 [Compound 475, ethyl 4-({[(3-fluorophenyl)amino]carbonyl}amino)benzoate]
CCOc1cccc(NC(=O)Nc2ccc([N+](=O)[O-])cc2)c1 [Compound 558, 1-(3-ethoxyphenyl)-3-(4-nitrophenyl)urea]
COCc1ccc(NC(=O)Nc2ccc([N+](=O)[O-])cc2)cc1 [Compound 561, 1-[4-(methoxymethyl)phenyl]-3-(4-nitrophenyl)urea]
CCOC(=O)c1ccc(NC(=O)Nc2ccc(C(C)O)cc2)cc1 (stereo not drawn) [Compound 750, ethyl 4-[({[4-(1-hydroxyethyl)phenyl]amino}carbonyl)amino] benzoate]
CCOC(=O)c1cccc(NC(=O)Nc2ccc(CCO)cc2)c1 [Compound 753, ethyl 3-[({[4-(2-hydroxyethyl)phenyl]amino}carbonyl)amino] benzoate]
CCOC(=O)c1ccc(NC(=O)Nc2cccc(C)c2)cc1 [Compound 473, ethyl 4-({[(3-methylphenyl)amino]carbonyl}amino)benzoate]
CCOc1cccc(NC(=O)Nc2ccc(Cl)cc2)c1 [Compound 386, 1-(4-chlorophenyl)-3-(3-ethoxyphenyl)urea]
CCOc1cccc(NC(=O)Nc2ccc(F)cc2)c1 [Compound 356, 1-(3-ethoxyphenyl)-3-(4-fluorophenyl)urea]
CC(C)c1ccc(NC(=O)Nc2cccc(OC(F)F)c2)cc1 [Compound 577, 1-[3-(difluoromethoxy)phenyl]-3-(4-isopropylphenyl)urea]
CCCc1ccc(NC(=O)Nc2ccc(C(=O)OCC)cc2)cc1 [Compound 653, ethyl 4-({[(4-propylphenyl)amino]carbonyl}amino)benzoate]
CCOc1cccc(NC(=O)Nc2cccc(F)c2)c1 [Compound 355, 1-(3-ethoxyphenyl)-3-(3-fluorophenyl)urea]
Cc1ccc(NC(=O)Nc2cccc(OC(F)F)c2)c(C)c1 [Compound 711, 1-[3-(difluoromethoxy)phenyl]-3-(2,4-dimethylphenyl)urea]
COC(=O)c1ccc(NC(=O)Nc2ccc(Cl)cc2)cc1 [Compound 496, methyl 4-({[(4-chlorophenyl)amino]carbonyl}amino)benzoate]

same assay, conditions: Table I; IC50 at CB1, GTP binding with 1 nM CP55,940; read-out: IC50

IC50, < 2 µM:
CCc1ccc(NC(=O)Nc2ccc(O)cc2)cc1 [Compound 29, N-(4-ethylphenyl)-N′-(4-hydroxyphenyl)urea]
CCc1ccc(NC(=O)Nc2ccc(CO)cc2)cc1 [Compound 28, N-(4-ethylphenyl)-N′-[4-(hydroxymethyl)phenyl]urea]
N#Cc1cccc(NC(=O)Nc2ccc(OC(F)F)cc2)c1 [Compound 8, N-(3-cyanophenyl)-N′-[4-(difluoromethoxy)phenyl]urea]

same assay, conditions: Table II; IC50 at CB1, GTP binding with 1 nM CP55,940; read-out: IC50

IC50, < 2 µM:
O=C(Nc1ccc(OC(F)F)cc1)Nc1ccc2ncccc2c1 [Compound 129, N-[4-(difluoromethoxy)phenyl]-N′-quinolin-6-ylurea]
CCOc1ccc(NC(=O)Nc2cccc(Cl)c2)cc1 [Compound 236, N-(3-chlorophenyl)-N′-(4-ethoxyphenyl)urea]
Cc1ccc(NC(=O)Nc2cccc(-c3ccnc(C)n3)c2)cc1 [Compound 164, N-(4-methylphenyl)-N′-[3-(2-methylpyrimidin-4-yl)phenyl]urea]
CCCOc1ccc(NC(=O)Nc2ccc(C#N)cc2)cc1 [Compound 272, N-(4-cyanophenyl)-N′-(4-propoxyphenyl)urea]
CC(=O)c1ccc(NC(=O)Nc2ccc(OC(C)C)cc2)cc1 [Compound 282, N-(4-acetylphenyl)-N′-(4-isopropoxyphenyl)urea]
CCOc1ccc(NC(=O)Nc2ccc(F)cc2)cc1 [Compound 206, N-(4-ethoxyphenyl)-N′-(4-fluorophenyl)urea]
CCCOc1ccc(NC(=O)Nc2cccc(CC)c2)cc1 [Compound 243, N-(3-ethylphenyl)-N′-(4-propoxyphenyl)urea]
O=C(Nc1cccc(OC(F)F)c1)Nc1cccc(OC(F)(F)F)c1 [Compound 145, N-{3-(difluoromethoxy)phenyl]-N′-[3-(trifluoromethoxy)phenyl]urea]
CCc1ccc(NC(=O)Nc2ccc3ncccc3c2)cc1 [Compound 128, N-(4-ethylphenyl)-N′-quinolin-6-ylurea]
COc1ccc(NC(=O)Nc2cccc(C#N)c2)cc1 [Compound 259, N-(3-cyanophenyl)-N′-(4-methoxyphenyl)urea]
CCc1cccc(NC(=O)Nc2ccc(OC(C)C)cc2)c1 [Compound 249, N-(3-ethylphenyl)-N′-(4-isopropoxyphenyl)urea]
CC(=O)c1cccc(NC(=O)Nc2ccc(OC(C)C)cc2)c1 [Compound 281, N-(3-acetylphenyl)-N′-(4-isopropoxyphenyl)urea]
O=C(Nc1ccc(OC(F)F)cc1)Nc1cccc(-c2cncc3ccccc23)c1 [Compound 68, N-[4-(difluoromethoxy)phenyl]-N′-(3-isoquinolin-4-ylphenyl)urea]
